Results published in patent publication US20230029496A1, “AMINO ACID ALTERNATIVE CURING SYSTEM” (THE TEXAS A&M UNIVERSITY SYSTEM, priority 2019, published 2023).
“And” between values parts separate entries of the source, which are not always exact repeats. Equal entries are not always repeated. Where two headings read alike, the source gives them in different places. Marks after values point to notes of the source that are not given here.

Experiments:
[1] = tested on: nitric oxide synthase system; details: poultry; for Residual Nitrite, LSMean main effect of Temperature: sodium nitrite
Method: Fresh ground meat (beef, pork or poultry) was separated in ˜0.5 Kg batches and mixed with 2% salt and 10% added water. […] Each individual batch was mixed (1 min) in a food processor, removed for temperature and pH analyses and then placed into a jerky extruder tube. Approximately 25 g of sample were extruded into 50 mL centrifuge, then capped and labeled and placed into a controlled water batch and heated to a designated internal endpoint temperature (132, 158, or 165° F.).
Samples also contained 547 ppm sodium erythorbate, a cure accelerator (Phase I) and without sodium erythorbate (Phase II). Samples were placed into test tubes and heated in a controlled water bath to 132, 158 and 165° F. Samples were held in a 40° F. cooler for seven days then tested for residual nitrite. Residual nitrite was tested after deproteinization for amino acid analysis by HPLC. Determination of nitrite (UV/VIS Spectrophotometric Method) was used to detect any residual nitrite for best results in detecting minute amounts of nitrite. Residual nitrite levels were read in a 96 well plate reader at 540 nm.
Both phases of the experiment were designed as a factorial (concentration level and endpoint temperature) randomized complete block design with three replications. […] Least squares means were generated and Tukey's HSD used to determine significance at P≤0.05.

[2] = tested on: nitric oxide synthase system; details: 156 ppm sodium nitrite
Method: (§1) After thermal processing and chilling according to USDA-FSIS Appendix A—Thermal processing (71° C.) and B—Cooling procedures (2° C.) guidelines, the frankfurters will be vacuum packaged and stored under refrigeration (2° C.) until analyzed at 0, 14, 28 and 56 days post manufacture.
The samples were analyzed for residual nitrite after deproteinization by sample preparation for amino acid analysis by HPLC.
(§2) Samples were vacuum packaged and refrigerated and evaluated on Day 1, 7, 14, 28 and 56 post manufacture. Differences between treatment and control samples will be determined using Tukey's Least Significant Difference procedure at P≤0.05 level. The experiment was replicated three times.

[3] = 156 ppm sodium nitrite
Method: as §1
Cooked sample water activity was measured (in triplicate) using an Aqualab Model Series 3 water activity meter.
as §2

[4] = tested on: NOS system; test: Residual nitrite in test beef frankfurters (Example 12); details: 156 ppm sodium nitrite with sodium erythorbate 547 ppm
Method: (§3) The remaining nonmeat ingredients were added (except the antimicrobial) and chopped at 2000 rpm for one minute. Protecta (sodium acetate antimicrobial) was added and the emulsion chopped at 4000 rpm for one minute. The emulsion was evacuated and placed into a vacuum assisted stuffer where each test emulsion was stuffed and twist linked into 22 mm cellulose casings weighing 40 g each. The frankfurter links were hung on smokehouse trucks, placed into a commercial smokehouse and thermally processed to 160° F. (Table 18).
(§4) After thermal processing and chilling (40° F.), the casings were peeled from the frankfurters and were vacuum packaged and stored under refrigerated conditions for residual nitrite and nitrosylation. […] This was done to determine if the L-arginine could the NOS system to generate sufficient NO for cure color development and residual nitrite for antioxidant and antimicrobial effect.

[5] = tested on: NOS system; test: NO-heme, total heme, nitrosylation in test beef frankfurters (Example 12); details: 156 ppm sodium nitrite with sodium erythorbate 547 ppm
Method: as §3, §4

[6] = tested on: nitric oxide synthase system; details: pork, Phase I, with 547 ppm sodium erythorbate

Structure (SMILES): O=NO [Sodium Nitrite, Sodium nitrite, reference compound]
- Residual Nitrite, LSMean main effect of Concentration ([1]; Phase I, with 547 ppm sodium erythorbate, 120 ppm sodium nitrite): 64.56^b ppm and 64.56 ppm
- Residual Nitrite, LSMean Conc × Temp ([1]; Phase I, with 547 ppm sodium erythorbate, 120 ppm sodium nitrite, 132° F.): 66.48 ppm
- Residual Nitrite, LSMean Conc × Temp ([1]; Phase I, with 547 ppm sodium erythorbate, 120 ppm sodium nitrite, 158° F.): 68.47 ppm
- Residual Nitrite, LSMean Conc × Temp ([1]; Phase I, with 547 ppm sodium erythorbate, 120 ppm sodium nitrite, 165° F.): 58.74 ppm
- Residual Nitrite, LSMean main effect of Concentration ([1]; Phase I, with 547 ppm sodium erythorbate, 156 ppm sodium nitrite): 78.51^ab ppm and 78.51 ppm
- Residual Nitrite, LSMean Conc × Temp ([1]; Phase I, with 547 ppm sodium erythorbate, 156 ppm sodium nitrite, 132° F.): 80.52 ppm
- Residual Nitrite, LSMean Conc × Temp ([1]; Phase I, with 547 ppm sodium erythorbate, 156 ppm sodium nitrite, 158° F.): 85.36 ppm
- Residual Nitrite, LSMean Conc × Temp ([1]; Phase I, with 547 ppm sodium erythorbate, 156 ppm sodium nitrite, 165° F.): 69.65 ppm
- Residual Nitrite, LSMean main effect of Concentration ([1]; Phase I, with 547 ppm sodium erythorbate, 200 ppm sodium nitrite): 90.59^a ppm and 90.59 ppm
- Residual Nitrite, LSMean Conc × Temp ([1]; Phase I, with 547 ppm sodium erythorbate, 200 ppm sodium nitrite, 132° F.): 107.26 ppm
- Residual Nitrite, LSMean Conc × Temp ([1]; Phase I, with 547 ppm sodium erythorbate, 200 ppm sodium nitrite, 158° F.): 86.10 ppm
- Residual Nitrite, LSMean Conc × Temp ([1]; Phase I, with 547 ppm sodium erythorbate, 200 ppm sodium nitrite, 165° F.): 78.41 ppm
- Residual Nitrite, LSMean main effect of Temperature ([1]; Phase I, with 547 ppm sodium erythorbate, 132° F.): 84.75^a ppm and 84.75 ppm
- Residual Nitrite, LSMean main effect of Temperature ([1]; Phase I, with 547 ppm sodium erythorbate, 158° F.): 79.98^ab ppm and 79.98 ppm
- Residual Nitrite, LSMean main effect of Temperature ([1]; Phase I, with 547 ppm sodium erythorbate, 165° F.): 68.93^b ppm and 68.93 ppm
- Residual Nitrite, LSMean Conc × Temp ([1]; Phase II, without 547 ppm sodium erythorbate, 120 ppm sodium nitrite, 132° F.): 171.64^cde ppm
- Residual Nitrite, LSMean Conc × Temp ([1]; Phase II, without 547 ppm sodium erythorbate, 120 ppm sodium nitrite, 158° F.): 148.63^e ppm
- Residual Nitrite, LSMean Conc × Temp ([1]; Phase II, without 547 ppm sodium erythorbate, 120 ppm sodium nitrite, 165° F.): 162.23^de ppm
- Residual Nitrite, LSMean Conc × Temp ([1]; Phase II, without 547 ppm sodium erythorbate, 156 ppm sodium nitrite, 132° F.): 202.54^bc ppm
- Residual Nitrite, LSMean Conc × Temp ([1]; Phase II, without 547 ppm sodium erythorbate, 156 ppm sodium nitrite, 158° F.): 177.54^cde ppm
- Residual Nitrite, LSMean Conc × Temp ([1]; Phase II, without 547 ppm sodium erythorbate, 156 ppm sodium nitrite, 165° F.): 165.70^cde ppm
- Residual Nitrite, LSMean Conc × Temp ([1]; Phase II, without 547 ppm sodium erythorbate, 200 ppm sodium nitrite, 132° F.): 249.27^a ppm
- Residual Nitrite, LSMean Conc × Temp ([1]; Phase II, without 547 ppm sodium erythorbate, 200 ppm sodium nitrite, 158° F.): 223.86^ab ppm
- Residual Nitrite, LSMean Conc × Temp ([1]; Phase II, without 547 ppm sodium erythorbate, 200 ppm sodium nitrite, 165° F.): 189.46^cd ppm
- Residual Nitrite, LSMean main effect of Temperature ([1]; Phase II, without 547 ppm sodium erythorbate, 132° F.): 207.82^a ppm and 207.82 ppm
- Residual Nitrite, LSMean main effect of Temperature ([1]; Phase II, without 547 ppm sodium erythorbate, 158° F.): 183.34^b ppm and 183.34 ppm
- Residual Nitrite, LSMean main effect of Temperature ([1]; Phase II, without 547 ppm sodium erythorbate, 165° F.): 172.46^b ppm and 172.46 ppm
- residual sodium nitrite ([2]; Day 1): 85.05
- residual sodium nitrite ([2]; Day 7): 74.53
- residual sodium nitrite ([2]; Day 14): 121.03
- residual sodium nitrite ([2]; Day 28): 73.73
- water activity (Aw) ([3]; Day 1): 0.979
- water activity (Aw) ([3]; Day 7): 0.979
- water activity (Aw) ([3]; Day 14): 0.972
- water activity (Aw) ([3]; Day 28): 0.978
- Nitrite [4]: 21.27^a ppm
- Nitrite ([4]; listed as sodium nitrite): 21.27 ppm and ~18 ppm
- NO-Heme [5]: 17.88^b ppm
- Nitrosylation [5]: 94.93^b %
- Total Heme [5]: 79.11^a ppm
- Nitrosylation ([5]; listed as sodium nitrite): 94.93%
- Residual Nitrite, LSMean main effect of Concentration ([6]; 120 ppm sodium nitrite): 42.30^b ppm and 42.30 ppm
- Residual Nitrite, LSMean Conc × Temp ([6]; 120 ppm sodium nitrite, 132° F.): 58.68 ppm
- Residual Nitrite, LSMean Conc × Temp ([6]; 120 ppm sodium nitrite, 158° F.): 41.15 ppm
- Residual Nitrite, LSMean Conc × Temp ([6]; 120 ppm sodium nitrite, 165° F.): 27.07 ppm
- Residual Nitrite, LSMean main effect of Concentration ([6]; 156 ppm sodium nitrite): 62.37^a ppm and 62.37 ppm
- Residual Nitrite, LSMean Conc × Temp ([6]; 156 ppm sodium nitrite, 132° F.): 66.93 ppm
- Residual Nitrite, LSMean Conc × Temp ([6]; 156 ppm sodium nitrite, 158° F.): 46.37 ppm
- Residual Nitrite, LSMean Conc × Temp ([6]; 156 ppm sodium nitrite, 165° F.): 73.82 ppm
- Residual Nitrite, LSMean main effect of Concentration ([6]; 200 ppm sodium nitrite): 68.22^a ppm and 68.22 ppm
